Results published in ChEMBL document CHEMBL1201862, “PubChem BioAssay data set” (2004).
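96-well plates; 48 h exposure; 5 concentrations. Endpoints by linear interpolation between flanking doses. Not reached: highest tested concentration assigned. GI50 marks 50% less growth.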 The source made the active and inactive calls. Cut-off read from the data, not from the text of the source: active = GI50 up to about 1.1 µM and inactive = higher.

Key:
Experiment in all cases: NCI-60 cell line screen, 48 h
EKVX = system: EKVX
Hs-578T = system: Hs-578T
NCI-H23 = system: NCI-H23
PC-3 = system: PC-3
UO-31 = system: UO-31
OVCAR-5 = system: OVCAR-5
SR = system: SR
SK-OV-3 = system: SK-OV-3
MDA-MB-231 = system: MDA-MB-231
CAKI-1 = system: CAKI-1
RPMI-8226 = system: RPMI-8226
UACC-257 = system: UACC-257
786-0 = system: 786-0
CCRF-CEM = system: CCRF-CEM
MCF7 = system: MCF7
A498 = system: A498
OVCAR-8 = system: OVCAR-8
SK-MEL-5 = system: SK-MEL-5
BT-549 = system: BT-549
U-251 = system: U-251
HT-29 = system: HT-29
MDA-MB-435 = system: MDA-MB-435
HCT-15 = system: HCT-15
M14 = system: M14
UACC-62 = system: UACC-62
HCT-116 = system: HCT-116
SW-620 = system: SW-620
HOP-92 = system: HOP-92
TK-10 = system: TK-10
NCI-H460 = system: NCI-H460
RXF 393 = system: RXF 393
A549 = system: A549
LOX IMVI = system: LOX IMVI
MDA-N = system: MDA-N
ACHN = system: ACHN
SNB-19 = system: SNB-19
HOP-62 = system: HOP-62
IGROV-1 = system: IGROV-1
SK-MEL-2 = system: SK-MEL-2
NCI-H226 = system: NCI-H226
HCC 2998 = system: HCC 2998
OVCAR-3 = system: OVCAR-3
SN12C = system: SN12C
K562 = system: K562
Malme-3M = system: Malme-3M
SF-539 = system: SF-539
DU-145 = system: DU-145
MOLT-4 = system: MOLT-4
NCI/ADR-RES = system: NCI/ADR-RES
HL-60 = system: HL-60
COLO 205 = system: COLO 205
SF-295 = system: SF-295

Measured: GI50

Cc1cccc(N2C(=O)C3c4[nH]c5ccccc5c4C4CCC(C(C)(C)C)CC4C3C2=O)c1C (configuration not stated)
inactive: EKVX 29.7 µM | Hs-578T 25.8 µM | NCI-H23 > 100 µM | PC-3 > 100 µM | UO-31 > 100 µM | OVCAR-5 > 100 µM | SR > 100 µM | SK-OV-3 > 100 µM | MDA-MB-231 19 µM | CAKI-1 > 100 µM | RPMI-8226 > 100 µM | UACC-257 > 100 µM | 786-0 38.7 µM | CCRF-CEM 56.6 µM | MCF7 > 100 µM | A498 > 100 µM | OVCAR-8 38.9 µM | SK-MEL-5 > 100 µM | BT-549 > 100 µM | U-251 28.2 µM | HT-29 > 100 µM | MDA-MB-435 > 100 µM | M14 > 100 µM | UACC-62 > 100 µM | HCT-116 28.7 µM | SW-620 40 µM | HOP-92 > 100 µM | TK-10 > 100 µM | NCI-H460 > 100 µM | RXF 393 > 100 µM | A549 47 µM | LOX IMVI > 100 µM | MDA-N > 100 µM | ACHN > 100 µM | SNB-19 > 100 µM | HOP-62 > 100 µM | IGROV-1 > 100 µM | SK-MEL-2 > 100 µM | NCI-H226 > 100 µM | HCC 2998 > 100 µM | OVCAR-3 > 100 µM | SN12C 78.7 µM | K562 > 100 µM | Malme-3M > 100 µM | SF-539 75.9 µM | DU-145 > 100 µM | MOLT-4 > 100 µM | NCI/ADR-RES > 100 µM | HL-60 16.9 µM | COLO 205 > 100 µM | SF-295 > 100 µM
> 100 µM: HCT-15
